Laboratory results from ChEMBL document CHEMBL1138134, “Phthalazinones 2: Optimisation and synthesis of novel potent inhibitors of poly(ADP-ribose)polymerase” (Bioorg Med Chem Lett, 2006).
Values after ≈ are worked out from the molar mass of the structure shown.

Columns and labels:
[1] = molecular target: T1, Poly [ADP-ribose] polymerase 1 (Homo sapiens, UniProt P09874); assay: Inhibitory activity against PARP1
[2] = molecular target: T1, Poly [ADP-ribose] polymerase 1; conditions: HeLa
Description: Ratio of inhibition of HeLa cell proliferation by MMS alone against MMS with PARP inhibitors

[3] = Half life in rat at 10 mg/kg, iv; assay type: ADME, organism-based; set-up: dose 10 mg/kg, route intravenous; conditions: in vivo
[4] = Clearance in rat at 10 mg/kg, iv; assay type: ADME, organism-based; set-up: dose 10 mg/kg, route intravenous; conditions: in vivo
[5] = Volume of distribution in rat at 10 mg/kg, iv; assay type: ADME, organism-based; set-up: dose 10 mg/kg, route intravenous; conditions: in vivo, read-out: Vdss
[6] = Aqueous solubility at pH 7.4; assay type: physicochemical
CAPAN-1 = assay: Activity against BRCA2-deficient cells; assay type: functional, Homo sapiens
RKO = assay: Activity against wild type cells; assay type: functional, Homo sapiens
Mus musculus = species on record: Mus musculus; assay: Intrinsic clearance in mouse hepatic microsomes; assay type: ADME, Liver, Microsome

T1 sequence (P09874 whole entry): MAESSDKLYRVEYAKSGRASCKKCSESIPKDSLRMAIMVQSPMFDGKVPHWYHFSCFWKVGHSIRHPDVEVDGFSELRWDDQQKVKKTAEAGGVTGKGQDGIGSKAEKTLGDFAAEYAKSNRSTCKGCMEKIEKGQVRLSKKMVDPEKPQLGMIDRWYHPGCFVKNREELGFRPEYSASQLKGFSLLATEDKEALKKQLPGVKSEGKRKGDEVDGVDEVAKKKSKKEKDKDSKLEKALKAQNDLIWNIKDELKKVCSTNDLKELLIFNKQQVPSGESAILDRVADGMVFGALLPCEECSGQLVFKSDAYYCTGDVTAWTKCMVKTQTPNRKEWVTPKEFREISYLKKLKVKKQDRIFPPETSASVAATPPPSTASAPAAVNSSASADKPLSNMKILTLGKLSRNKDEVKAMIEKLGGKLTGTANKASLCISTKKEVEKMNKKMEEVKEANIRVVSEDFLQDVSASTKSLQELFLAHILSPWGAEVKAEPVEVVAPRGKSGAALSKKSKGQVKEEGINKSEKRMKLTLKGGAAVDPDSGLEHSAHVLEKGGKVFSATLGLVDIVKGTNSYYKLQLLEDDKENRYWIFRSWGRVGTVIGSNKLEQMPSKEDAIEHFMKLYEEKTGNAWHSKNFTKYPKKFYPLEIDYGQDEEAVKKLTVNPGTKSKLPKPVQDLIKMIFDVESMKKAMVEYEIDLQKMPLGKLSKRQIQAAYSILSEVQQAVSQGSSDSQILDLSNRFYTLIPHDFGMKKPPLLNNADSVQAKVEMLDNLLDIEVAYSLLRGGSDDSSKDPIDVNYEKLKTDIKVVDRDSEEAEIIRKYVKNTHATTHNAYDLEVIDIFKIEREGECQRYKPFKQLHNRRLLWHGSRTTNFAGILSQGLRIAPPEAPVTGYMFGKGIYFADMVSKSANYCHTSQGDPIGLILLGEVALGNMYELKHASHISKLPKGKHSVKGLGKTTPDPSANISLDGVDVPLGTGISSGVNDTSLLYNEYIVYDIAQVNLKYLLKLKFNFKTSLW

Row | Structure (SMILES) | IC50 [1] [nM] | PF50 [2] | further results
1 | O=C(c1cccc(Cc2n[nH]c(=O)c3ccccc23)c1)N1CCOCC1 | 40 |  | 
2 | O=C(c1cccc(Cc2nnc(O)c3ccccc23)c1)N1CCc2ccccc2C1 | 8 | 3.4 | 
3 | COc1ccc(NC(=O)N2CCCN(C(=O)c3cccc(Cc4nnc(O)c5ccccc45)c3)CC2)cc1 |  | 2.2 | 
4 | COc1cccc(CCC(=O)N2CCCN(C(=O)c3cccc(Cc4nnc(O)c5ccccc45)c3)CC2)c1 | 8 | 2.5 | 
5 | CCC(C)CN(C)C(=O)C1CCN(C(=O)c2cccc(Cc3nnc(O)c4ccccc34)c2)CC1 (stereo unspecified) |  | 2.6 | 
6 | CCC(C)CN(C)C(=O)C1CCN(C(=O)c2cccc(Cc3n[nH]c(=O)c4ccccc34)c2)CC1 (stereo unspecified) | 9 |  | 
7 | O=C(NCCc1cccs1)C1CCN(C(=O)c2cccc(Cc3nnc(O)c4ccccc34)c2)CC1 | 8 | 2.8 | 
8 | Cc1noc(C)c1S(=O)(=O)N1CCCN(C(=O)c2cccc(Cc3n[nH]c(=O)c4ccccc34)c2)CC1 | 12 |  | 
9 | CCCN1CCCN(C(=O)c2cccc(Cc3nnc(O)c4ccccc34)c2)CC1 |  | 2.5 | 
10 | O=C(c1cc(Cc2n[nH]c(=O)c3ccccc23)ccc1F)N1CCCN(CC2CC2)CC1 | 5 |  | 
11 | O=C(c1cccc(Cc2nnc(O)c3ccccc23)c1)N1CCOCC1 |  | 1.2 | 
12 | CN(Cc1ccccc1)C(=O)C1CCN(C(=O)c2cccc(Cc3nnc(O)c4ccccc34)c2)CC1 | 9 | 2.1 | 
13 | CCN1CCCN(C(=O)c2cc(Cc3nnc(O)c4ccccc34)ccc2F)CC1 |  | 6.7 | 
14 | O=C(c1cccc(Cc2nnc(O)c3ccccc23)c1)N1CCCN(CC2CC2)CC1 |  | 3.1 | 
15 | O=C(c1cc(Cc2n[nH]c(=O)c3ccccc23)ccc1F)N1CCCNCC1 | 7 | 12.6 | half-life [3]: 1 h; clearance [4]: 54 mL/min/kg; Vd [5]: 2.1 L/kg; solubility [6]: 5100 µg/mL (≈ 13.4 mM); SF50 (CAPAN-1): 15 nM; SF50 (RKO): 2 µM
16 | O=C(c1cccc(Cc2nnc(O)c3ccccc23)c1)N1CCC(C(=O)N2CCCCC2)CC1 | 15 | 3.9 | 
17 | CC1CCN(C(=O)C2CCN(C(=O)c3cccc(Cc4n[nH]c(=O)c5ccccc45)c3)CC2)CC1 | 8 |  | 
18 | O=C(NC1CCCC1)C1CCN(C(=O)c2cccc(Cc3nnc(O)c4ccccc34)c2)CC1 | 15 | 2.5 | 
19 | O=C(c1cccc(Cc2nnc(O)c3ccccc23)c1)N1CCCN(S(=O)(=O)c2cccc(C(F)(F)F)c2)CC1 |  | 2.1 | 

Further lines, with some results ahead:

Row | IC50 [1] [nM] | PF50 [2] | Structure (SMILES) | further results
20 | 9 |  | COc1cc(C(=O)N2CCCN(C(=O)c3cccc(Cc4n[nH]c(=O)c5ccccc45)c3)CC2)cc(Cl)n1 | 
21 | 14 |  | O=C(c1cccc(Cc2n[nH]c(=O)c3ccccc23)c1)N1CCCN(CC2CC2)CC1 | 
22 | 16 | 2 | CC(C)CNC(=O)C1CCN(C(=O)c2cccc(Cc3nnc(O)c4ccccc34)c2)CC1 | 
23 |  | 6.7 | O=C(c1cc(Cc2nnc(O)c3ccccc23)ccc1F)N1CCCN(CC2CC2)CC1 | 
24 | 23 | 1.8 | CN1CCCN(C(=O)c2cccc(Cc3nnc(O)c4ccccc34)c2)CC1 | 
25 |  | 2.5 | COc1cc(C(=O)N2CCCN(C(=O)c3cccc(Cc4nnc(O)c5ccccc45)c3)CC2)cc(Cl)n1 | 
26 | 9 |  | O=C(c1cccc(Cc2n[nH]c(=O)c3ccccc23)c1)N1CCCNCC1 | 
27 |  | 4.1 | COc1cc2c(cc1OC)CN(C(=O)C1CCN(C(=O)c3cccc(Cc4nnc(O)c5ccccc45)c3)CC1)CC2 | 
28 | 6 | 6.6 | O=C(c1cccc(Cc2nnc(O)c3ccccc23)c1)N1CCCN(C2CCCCC2)CC1 | 
29 | 9 | 5.5 | CN1CCCN(C(=O)c2cc(Cc3nnc(O)c4ccccc34)ccc2F)CC1 | 
30 |  | 4.4 | CC1CCN(C(=O)C2CCN(C(=O)c3cccc(Cc4nnc(O)c5ccccc45)c3)CC2)CC1 | 
31 |  | 2.4 | O=C(c1cccc(Cc2nnc(O)c3ccccc23)c1)N1CCCNCC1 | 
32 |  | 2.1 | CCNC(=O)c1cccc(Cc2n[nH]c(=O)c3ccccc23)c1 | CL (Mus musculus): < 1 mL/min/g
33 | 46 | 2.2 | CN(C)CCN(C)C(=O)c1cccc(Cc2nnc(O)c3ccccc23)c1 | 
34 |  | 3.7 | O=C(c1cccc(Cc2n[nH]c(=O)c3ccccc23)c1)N1CCNCC1 | 
35 | 10 |  | CCCN1CCCN(C(=O)c2cccc(Cc3n[nH]c(=O)c4ccccc34)c2)CC1 | 
36 |  | 2.3 | CCC(=O)Nc1cccc(Cc2n[nH]c(=O)c3ccccc23)c1 | CL (Mus musculus): 12 mL/min/g
37 |  | 2.1 | Cc1noc(C)c1S(=O)(=O)N1CCCN(C(=O)c2cccc(Cc3nnc(O)c4ccccc34)c2)CC1 | 
38 |  | 3.2 | O=C(c1cccc(Cc2nnc(O)c3ccccc23)c1)N1CCCN(S(=O)(=O)c2ccc(-c3ccccc3)cc2)CC1 | 
39 |  | 2.1 | CCOC(=O)C1CCN(C(=O)c2cccc(Cc3nnc(O)c4ccccc34)c2)CC1 | 
40 |  | 6.3 | O=C(c1cc(Cc2nnc(O)c3ccccc23)ccc1F)N1CCCN(C2CCCCC2)CC1 | 
41 | 5 | 7 | CCCN1CCCN(C(=O)c2cc(Cc3nnc(O)c4ccccc34)ccc2F)CC1 | 
42 | 16 |  | COc1cc2c(cc1OC)CN(C(=O)C1CCN(C(=O)c3cccc(Cc4n[nH]c(=O)c5ccccc45)c3)CC1)CC2 | 
43 | 15 |  | CCOC(=O)C1CCN(C(=O)c2cccc(Cc3n[nH]c(=O)c4ccccc34)c2)CC1 | 
44 | 15 | 2.6 | CCN1CCCN(C(=O)c2cccc(Cc3nnc(O)c4ccccc34)c2)CC1 | 
